Source: PubChem BioAssay (NCI)
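Grown in 96-well plates, cells were treated for 48 hours with each compound at five concentrations. Insufficient inhibition: endpoint recorded as highest concentration tested. Definition used: TGI = concentration required for complete inhibition of growth.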

Columns and labels:
Assay in all cases: NCI tumour cell line growth inhibition, 48 h
[1] = test system: HL-60(TB) leukemia
[2] = test system: SK-MEL-2 melanoma
[3] = test system: MALME-3M melanoma
[4] = test system: HOP-18 NSCLC
[5] = test system: RXF-631 renal
[6] = test system: TK-10 renal
[7] = test system: SF-295 CNS
[8] = test system: RXF 393 renal
[9] = test system: HCC-2998 colon
[10] = test system: OVCAR-8 ovarian
[11] = test system: UACC-257 melanoma
[12] = test system: HOP-62 NSCLC
[13] = test system: ACHN renal
[14] = test system: A549 NSCLC
[15] = test system: MOLT-4 leukemia
[16] = test system: NCI-H460 lung
[17] = test system: HCT-15 colon
[18] = test system: U251 CNS
[19] = test system: HOP-92 NSCLC
[20] = test system: M14 melanoma
[21] = test system: DLD-1 colon
[22] = test system: OVCAR-5 ovarian
[23] = test system: CCRF-CEM leukemia
[24] = test system: LXFL 529 NSCLC
[25] = test system: SK-OV-3 ovarian
[26] = test system: 786-0 renal
[27] = test system: HT29 colon
[28] = test system: SK-MEL-28 melanoma
[29] = test system: DMS 273 small cell lung
[30] = test system: KM12 colon
[31] = test system: A498 renal
[32] = test system: CAKI-1 renal
[33] = test system: IGROV1 ovarian
[34] = test system: UO-31 renal
[35] = test system: M19-MEL melanoma
[36] = test system: NCI-H522 lung
[37] = test system: SK-MEL-5 melanoma
[38] = test system: SN12C renal
[39] = test system: NCI-H23 lung
[40] = test system: OVCAR-3 ovarian
[41] = test system: KM20L2 colon
[42] = test system: MCF7 breast
[43] = test system: SNB-19 CNS
[44] = test system: OVCAR-4 ovarian
[45] = test system: DMS 114 small cell lung
[46] = test system: SNB-78 CNS
[47] = test system: SN12K1 renal
[48] = test system: SW-620 colon
[49] = test system: P388/ADR leukemia
[50] = test system: SF-539 CNS
[51] = test system: K-562 leukemia
[52] = test system: P388 leukemia
[53] = test system: NCI/ADR-RES ovarian
[54] = test system: LOX IMVI melanoma
[55] = test system: COLO 205 colon
[56] = test system: RPMI-8226 leukemia
[57] = test system: SNB-75 CNS
[58] = test system: HCT-116 colon
[59] = test system: EKVX NSCLC
[60] = test system: UACC-62 melanoma
[61] = test system: XF 498 CNS
[62] = test system: SF-268 CNS
[63] = test system: NCI-H226 lung

CCN(CC)CCCC(C)Nc1c2cc(OC)cc(C)c2nc2c(C)c(Cl)ccc12 (stereo not given)
TGI [1]: 4.26 µM
TGI [2]: 3.44 µM
TGI [3]: 3.52 µM
TGI [4]: 2.91 µM
TGI [5]: 3.23 µM
TGI [6]: 3.19 µM
TGI [7]: 3.71 µM
TGI [8]: 3.54 µM
TGI [9]: 3.03 µM
TGI [10]: 3.19 µM
TGI [11]: 3.31 µM
TGI [12]: 3.08 µM
TGI [13]: 3.09 µM
TGI [14]: 3.31 µM
TGI [15]: 3.26 µM
TGI [16]: 3.32 µM
TGI [17]: 3.2 µM
TGI [18]: 3.26 µM
TGI [19]: 3.22 µM
TGI [20]: 3.68 µM
TGI [21]: 2.93 µM
TGI [22]: 3.92 µM
TGI [23]: 3.25 µM
TGI [24]: 2.98 µM
TGI [25]: 3.06 µM
TGI [26]: 3.02 µM
TGI [27]: 3.03 µM
TGI [28]: 3.39 µM
TGI [29]: 3.14 µM
TGI [30]: 2.99 µM
TGI [31]: 6.3 µM
TGI [32]: 4.81 µM
TGI [33]: 3.09 µM
TGI [34]: 3.1 µM
TGI [35]: 3.13 µM
TGI [36]: 3.06 µM
TGI [37]: 3.28 µM
TGI [38]: 2.93 µM
TGI [39]: 2.82 µM
TGI [40]: 3.27 µM

Cn1c2ccccc2c(=O)c2c(O)cc3c(c21)C=CC(C)(C)O3
TGI [1]: > 20.1 µM
TGI [2]: > 25 µM
TGI [3]: > 25 µM
TGI [4]: > 25 µM
TGI [41]: > 25 µM
TGI [42]: > 25 µM
TGI [43]: > 25 µM
TGI [7]: > 25 µM
TGI [8]: > 25 µM
TGI [9]: > 25 µM
TGI [44]: > 25 µM
TGI [11]: > 25 µM
TGI [45]: > 25 µM
TGI [12]: > 25 µM
TGI [46]: > 25 µM
TGI [14]: > 25 µM
TGI [47]: > 25 µM
TGI [48]: > 25 µM
TGI [49]: > 25 µM
TGI [16]: > 25 µM
TGI [17]: > 25 µM
TGI [50]: > 25 µM
TGI [51]: > 25 µM
TGI [18]: > 25 µM
TGI [52]: > 25 µM
TGI [53]: > 25 µM
TGI [54]: > 25 µM
TGI [55]: > 25 µM
TGI [19]: > 25 µM
TGI [56]: > 25 µM
TGI [21]: > 25 µM
TGI [57]: 24.9 µM
TGI [22]: > 25 µM
TGI [23]: > 25 µM
TGI [25]: > 25 µM
TGI [27]: > 25 µM
TGI [58]: > 25 µM
TGI [28]: > 25 µM
TGI [29]: > 25 µM
TGI [59]: > 25 µM
TGI [30]: > 25 µM
TGI [60]: > 25 µM
TGI [31]: > 25 µM
TGI [61]: > 25 µM
TGI [32]: > 10.1 µM
TGI [33]: > 25 µM
TGI [34]: > 25 µM
TGI [62]: > 25 µM
TGI [35]: > 25 µM
TGI [36]: > 25 µM
TGI [37]: > 25 µM
TGI [38]: > 25 µM
TGI [39]: > 25 µM
TGI [40]: > 25 µM
TGI [63]: > 25 µM
